# Source: paper PMC3003306 (Structure (London, England : 1993), 2010)
# Molecular target: T1, IGPS (HisF-HisH heterodimer), glutaminase site in HisH (Thermotoga maritima, UniProt Q9X0C8)
# T1 sequence (Q9X0C8 1-201): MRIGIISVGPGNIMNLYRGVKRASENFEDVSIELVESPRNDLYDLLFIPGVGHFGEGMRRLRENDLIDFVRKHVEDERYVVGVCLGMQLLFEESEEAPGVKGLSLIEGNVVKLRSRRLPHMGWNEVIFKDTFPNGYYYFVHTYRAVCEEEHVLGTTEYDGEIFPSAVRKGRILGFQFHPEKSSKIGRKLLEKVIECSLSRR
# T1 sequence (Q9X0C6 1-253 partner): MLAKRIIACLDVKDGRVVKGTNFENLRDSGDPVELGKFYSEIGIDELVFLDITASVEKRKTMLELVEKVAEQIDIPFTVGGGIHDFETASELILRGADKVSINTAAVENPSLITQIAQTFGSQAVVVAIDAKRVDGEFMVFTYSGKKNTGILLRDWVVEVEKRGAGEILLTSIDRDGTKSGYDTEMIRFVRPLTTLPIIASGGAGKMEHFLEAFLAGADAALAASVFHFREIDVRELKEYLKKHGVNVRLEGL
# Experiment: covalent modification of HisH C84 followed by DTNB analysis
# Format: binding
# Settings: 1.5 molar equivalents acivicin, room temperature, HisH active site nucleophile C84
compound,measurement,value
N[C@H](C(=O)O)[C@@H]1CC(Cl)=NO1 [acivicin],covalent modification of HisH C84 followed by DTNB analysis; NMR,IGPS (HisH-C84) was covalently modified with acivicin
